Assay results taken from patent US7892780B2, “Method for screening antioxidant using mutant bacteria and chlorophyllide, and antioxidant screened by the method” (Industry-University Cooperation Foundation Sogang University, priority 2007, dated 2011).

System: Rhodobacter sphaeroides 2.4.1 SodB1 [KCTC 11069BP]
Experiment: Antioxidant screening by growth of SodB1 mutant bacteria on chlorophyllide-added medium blocks or filter discs
Format: cell-based
Conditions: sample dissolved in ethanol or dimethylsulfoxide, FIG. 5
Description: Next, an antioxidant sample and SodB1 mutant bacteria were added to these medium blocks, or otherwise chlorophyllide (0.1 to 100 mM) was added directly to filter discs to which a desired concentration of an antioxidant candidate material was then added. Thereafter, multimeric protein-expressing SodB1 mutant bacteria, i.e. Rhodobacter sphaeroides 2.4.1 SodB1 [KCTC 11069BP], were plated on a Sistrom's minimal medium [20 mM potassium dihydrogen phosphate (KH2PO4), 3.8 mM ammonium sulfate ((NH4)2SO4), 34 mM succinic acid, 0.59 mM L-glutamic acid, 0.30 mM L-aspartic acid, 8.5 mM sodium chloride, 1.05 mM nitrilotriacetic acid, 1.2 mM magnesium chloride (MgCl2.6H2O), 0.23 mM calcium chloride (CaCl2.7H2O), 25 μM ferrous sulfate (FeSO4.7H2O), 0.16 μM ammonium molybdate ((NH4)6Mo7O24.4H2O), 4.7 μM EDTA, 38 μM zinc sulfate (ZnSO4.7H2O), 9.1 μM manganese sulfate (MnSO4.H2O), 1.6 μM copper sulfate (CuSO4.5H2O), 0.85 μM cobalt (II) nitrate (Co(NO3)2.6H2O), 1.8 μM boric acid (H3BO3), 8.1 μM nicotinic acid, 1.5 μM thiamine hydrochloride, and 41 nM biotin] (Sistrom, W. R, 1962. J. Gen. Microbiol. 28: 607-616).
As a result, when there was an antioxidant activity in the antioxidant candidate material to be screened, cells grew only on the medium blocks or around filter discs and thus red bacteria were observed. […]

Molecule	cell growth of SodB1 mutant bacteria / prevention of cell death (antioxidant activity)
O=c1c(O)c(-c2ccc(O)c(O)c2)oc2cc(O)cc(O)c12 [quercetin]	partial cell growth
tocopherol	partial cell growth
